In patent publication US20240100170A1, “CYCLIC-AMP RESPONSE ELEMENT BINDING PROTEIN (CBP) AND/OR ADENOVIRAL E1A BINDING PROTEIN OF 300 KDA (P300) DEGRADATION COMPOUNDS AND METHODS OF USE” (CULLGEN (SHANGHAI), INC., priority 2020, published 2024):
Entries after “also recorded” stand apart in the source; their conditions may differ.

How the values were obtained:
P300 [1] = molecular target: T1, P300 (Homo sapiens, UniProt Q09472); test: P300 immunoblotting in 22RV1 subcutaneous xenograft tumors; assay type: in vivo, athymic nude mice; parameters: from tissue; host or cells: 22RV1 subcutaneous xenograft tumours in athymic nude mice; settings: single dose 40 mg/kg, intraperitoneally or orally, six hours after administration; FIG. 9
T1 sequence (Q09472 whole entry): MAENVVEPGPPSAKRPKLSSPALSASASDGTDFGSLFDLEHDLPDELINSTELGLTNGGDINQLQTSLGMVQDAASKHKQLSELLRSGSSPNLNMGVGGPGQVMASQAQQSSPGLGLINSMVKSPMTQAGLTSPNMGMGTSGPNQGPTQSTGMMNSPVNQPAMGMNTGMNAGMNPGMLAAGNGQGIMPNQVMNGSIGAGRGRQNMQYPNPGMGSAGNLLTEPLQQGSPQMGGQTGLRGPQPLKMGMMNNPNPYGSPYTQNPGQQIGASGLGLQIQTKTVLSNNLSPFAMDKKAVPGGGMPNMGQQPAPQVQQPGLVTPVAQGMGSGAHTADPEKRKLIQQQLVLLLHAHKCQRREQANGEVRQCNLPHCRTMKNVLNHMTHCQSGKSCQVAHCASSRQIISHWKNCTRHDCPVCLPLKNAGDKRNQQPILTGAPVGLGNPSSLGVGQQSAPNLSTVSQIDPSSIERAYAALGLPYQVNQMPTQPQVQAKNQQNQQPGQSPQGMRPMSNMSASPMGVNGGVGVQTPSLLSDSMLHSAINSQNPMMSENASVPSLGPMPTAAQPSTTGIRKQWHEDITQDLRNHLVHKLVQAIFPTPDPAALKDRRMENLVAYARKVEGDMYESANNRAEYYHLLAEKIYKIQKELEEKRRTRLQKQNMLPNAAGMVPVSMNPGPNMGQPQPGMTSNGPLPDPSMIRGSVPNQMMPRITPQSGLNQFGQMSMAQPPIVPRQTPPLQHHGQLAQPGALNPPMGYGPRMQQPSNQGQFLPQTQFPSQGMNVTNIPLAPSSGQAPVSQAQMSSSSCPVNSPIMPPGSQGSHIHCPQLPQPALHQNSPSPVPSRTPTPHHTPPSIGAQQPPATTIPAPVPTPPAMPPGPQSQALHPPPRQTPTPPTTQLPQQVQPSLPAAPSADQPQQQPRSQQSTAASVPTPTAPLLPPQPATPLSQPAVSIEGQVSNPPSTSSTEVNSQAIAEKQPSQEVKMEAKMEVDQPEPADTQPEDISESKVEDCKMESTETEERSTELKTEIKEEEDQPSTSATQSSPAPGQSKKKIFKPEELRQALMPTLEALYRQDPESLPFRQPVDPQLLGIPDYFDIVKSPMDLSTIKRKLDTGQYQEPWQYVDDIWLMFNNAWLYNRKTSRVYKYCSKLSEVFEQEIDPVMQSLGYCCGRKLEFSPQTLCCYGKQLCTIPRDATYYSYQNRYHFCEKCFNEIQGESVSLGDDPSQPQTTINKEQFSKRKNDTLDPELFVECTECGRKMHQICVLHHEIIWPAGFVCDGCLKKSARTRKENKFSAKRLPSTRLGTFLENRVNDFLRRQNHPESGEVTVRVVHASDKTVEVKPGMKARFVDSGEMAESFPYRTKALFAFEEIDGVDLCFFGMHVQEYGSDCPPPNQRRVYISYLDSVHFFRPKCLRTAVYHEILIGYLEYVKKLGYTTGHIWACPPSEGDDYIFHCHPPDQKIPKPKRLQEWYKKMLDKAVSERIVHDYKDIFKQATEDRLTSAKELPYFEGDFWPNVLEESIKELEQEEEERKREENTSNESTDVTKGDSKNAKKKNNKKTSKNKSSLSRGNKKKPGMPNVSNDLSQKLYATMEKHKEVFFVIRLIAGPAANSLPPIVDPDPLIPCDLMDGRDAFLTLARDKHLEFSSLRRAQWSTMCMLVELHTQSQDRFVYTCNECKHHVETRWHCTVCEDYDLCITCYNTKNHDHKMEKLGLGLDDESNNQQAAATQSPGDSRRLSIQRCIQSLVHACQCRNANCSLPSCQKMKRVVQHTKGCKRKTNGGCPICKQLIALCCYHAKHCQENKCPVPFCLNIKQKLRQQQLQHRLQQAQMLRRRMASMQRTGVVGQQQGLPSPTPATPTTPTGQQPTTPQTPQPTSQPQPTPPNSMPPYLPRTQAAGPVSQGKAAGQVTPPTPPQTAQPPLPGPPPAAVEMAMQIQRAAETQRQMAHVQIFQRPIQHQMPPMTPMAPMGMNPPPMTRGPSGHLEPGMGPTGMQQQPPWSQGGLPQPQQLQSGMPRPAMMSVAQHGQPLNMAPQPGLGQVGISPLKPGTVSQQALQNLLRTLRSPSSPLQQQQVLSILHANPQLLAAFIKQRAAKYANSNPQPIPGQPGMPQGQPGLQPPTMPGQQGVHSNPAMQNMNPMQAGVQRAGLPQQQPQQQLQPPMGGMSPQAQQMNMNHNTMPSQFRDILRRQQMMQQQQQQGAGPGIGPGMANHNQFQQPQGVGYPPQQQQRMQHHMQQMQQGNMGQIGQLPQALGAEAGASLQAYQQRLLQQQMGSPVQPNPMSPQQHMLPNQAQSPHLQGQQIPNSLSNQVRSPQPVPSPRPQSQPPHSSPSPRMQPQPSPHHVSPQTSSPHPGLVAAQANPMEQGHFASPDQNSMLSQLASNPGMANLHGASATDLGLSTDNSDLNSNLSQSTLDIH
Protocol: (§1) In addition to cultured cells, athymic nude mice bearing 22RV1 subcutaneous xenograft tumors at the right flank were intraperitoneally or orally treated with 40 mg/kg bivalent compounds. Six hours after drug administration, animals were sacrificed for immunoblotting of P300 and CBP in homogenized xenograft tumor masses. […] Moreover, ICR mice were orally treated with 40 mg/kg bivalent compounds. Six hours after drug administration, animals were sacrificed for immunoblotting of CBP in homogenized lung tissues.
(§2) Athymic nude mice bearing 22RV1 subcutaneous xenograft tumors at the right flank were intraperitoneally or orally treated with selected bivalent compounds at 40 mg/kg. Six hours after drug administration, animals were sacrificed, and xenograft tumors were collected for immunoblotting of P300 and CBP.
(§3) Cultured cells or tissue chunks were washed with cold PBS once and lysed in cold RIPA buffer supplemented with protease inhibitors and phosphatase inhibitors (Beyotime Biotechnology). The solutions were then incubated at 4° C. for 30 minutes with gentle agitation to fully lyse cells. Cell lysates were centrifuged at 13,000 rpm for 10 minutes at 4° C. and pellets were discarded. Total protein concentrations in the lysates were determined by BCA assays (Beyotime Biotechnology). Cell lysates were mixed with Laemmli loading buffer to 1 X and heated at 99° C. for 5 min. Proteins were resolved on SDS-PAGE and visualized by chemiluminescence. Images were taken by a ChemiDoc MP Imaging system (Bio-Rad). Protein bands were quantitated using the accompanied software provided by Bio-Rad.
(§4) All animal experiments were performed under protocols approved by the Institutional Animal Care and Use Committee (IACUC) of Cullgen. Athymic nude mice (male, 5-weeks old) received 5 million 22RV1 cells subcutaneously inoculated at the right flank site. Twenty days following inoculation, tumors were approxmiately 500 mm^3 in size. Tumor-bearing mice were treated intraperitoneally or via oral gavage with vehicle or bivalent compounds at indicated doses. […]

CBP [2] = molecular target: T2, CBP (Homo sapiens, UniProt Q92793); test: CBP immunoblotting in 22RV1 subcutaneous xenograft tumors; assay type: in vivo, athymic nude mice; parameters: from tissue; host or cells: 22RV1 subcutaneous xenograft tumours in athymic nude mice; settings: single dose 40 mg/kg, intraperitoneally or orally, six hours after administration; FIG. 9
T2 sequence (Q92793 whole entry): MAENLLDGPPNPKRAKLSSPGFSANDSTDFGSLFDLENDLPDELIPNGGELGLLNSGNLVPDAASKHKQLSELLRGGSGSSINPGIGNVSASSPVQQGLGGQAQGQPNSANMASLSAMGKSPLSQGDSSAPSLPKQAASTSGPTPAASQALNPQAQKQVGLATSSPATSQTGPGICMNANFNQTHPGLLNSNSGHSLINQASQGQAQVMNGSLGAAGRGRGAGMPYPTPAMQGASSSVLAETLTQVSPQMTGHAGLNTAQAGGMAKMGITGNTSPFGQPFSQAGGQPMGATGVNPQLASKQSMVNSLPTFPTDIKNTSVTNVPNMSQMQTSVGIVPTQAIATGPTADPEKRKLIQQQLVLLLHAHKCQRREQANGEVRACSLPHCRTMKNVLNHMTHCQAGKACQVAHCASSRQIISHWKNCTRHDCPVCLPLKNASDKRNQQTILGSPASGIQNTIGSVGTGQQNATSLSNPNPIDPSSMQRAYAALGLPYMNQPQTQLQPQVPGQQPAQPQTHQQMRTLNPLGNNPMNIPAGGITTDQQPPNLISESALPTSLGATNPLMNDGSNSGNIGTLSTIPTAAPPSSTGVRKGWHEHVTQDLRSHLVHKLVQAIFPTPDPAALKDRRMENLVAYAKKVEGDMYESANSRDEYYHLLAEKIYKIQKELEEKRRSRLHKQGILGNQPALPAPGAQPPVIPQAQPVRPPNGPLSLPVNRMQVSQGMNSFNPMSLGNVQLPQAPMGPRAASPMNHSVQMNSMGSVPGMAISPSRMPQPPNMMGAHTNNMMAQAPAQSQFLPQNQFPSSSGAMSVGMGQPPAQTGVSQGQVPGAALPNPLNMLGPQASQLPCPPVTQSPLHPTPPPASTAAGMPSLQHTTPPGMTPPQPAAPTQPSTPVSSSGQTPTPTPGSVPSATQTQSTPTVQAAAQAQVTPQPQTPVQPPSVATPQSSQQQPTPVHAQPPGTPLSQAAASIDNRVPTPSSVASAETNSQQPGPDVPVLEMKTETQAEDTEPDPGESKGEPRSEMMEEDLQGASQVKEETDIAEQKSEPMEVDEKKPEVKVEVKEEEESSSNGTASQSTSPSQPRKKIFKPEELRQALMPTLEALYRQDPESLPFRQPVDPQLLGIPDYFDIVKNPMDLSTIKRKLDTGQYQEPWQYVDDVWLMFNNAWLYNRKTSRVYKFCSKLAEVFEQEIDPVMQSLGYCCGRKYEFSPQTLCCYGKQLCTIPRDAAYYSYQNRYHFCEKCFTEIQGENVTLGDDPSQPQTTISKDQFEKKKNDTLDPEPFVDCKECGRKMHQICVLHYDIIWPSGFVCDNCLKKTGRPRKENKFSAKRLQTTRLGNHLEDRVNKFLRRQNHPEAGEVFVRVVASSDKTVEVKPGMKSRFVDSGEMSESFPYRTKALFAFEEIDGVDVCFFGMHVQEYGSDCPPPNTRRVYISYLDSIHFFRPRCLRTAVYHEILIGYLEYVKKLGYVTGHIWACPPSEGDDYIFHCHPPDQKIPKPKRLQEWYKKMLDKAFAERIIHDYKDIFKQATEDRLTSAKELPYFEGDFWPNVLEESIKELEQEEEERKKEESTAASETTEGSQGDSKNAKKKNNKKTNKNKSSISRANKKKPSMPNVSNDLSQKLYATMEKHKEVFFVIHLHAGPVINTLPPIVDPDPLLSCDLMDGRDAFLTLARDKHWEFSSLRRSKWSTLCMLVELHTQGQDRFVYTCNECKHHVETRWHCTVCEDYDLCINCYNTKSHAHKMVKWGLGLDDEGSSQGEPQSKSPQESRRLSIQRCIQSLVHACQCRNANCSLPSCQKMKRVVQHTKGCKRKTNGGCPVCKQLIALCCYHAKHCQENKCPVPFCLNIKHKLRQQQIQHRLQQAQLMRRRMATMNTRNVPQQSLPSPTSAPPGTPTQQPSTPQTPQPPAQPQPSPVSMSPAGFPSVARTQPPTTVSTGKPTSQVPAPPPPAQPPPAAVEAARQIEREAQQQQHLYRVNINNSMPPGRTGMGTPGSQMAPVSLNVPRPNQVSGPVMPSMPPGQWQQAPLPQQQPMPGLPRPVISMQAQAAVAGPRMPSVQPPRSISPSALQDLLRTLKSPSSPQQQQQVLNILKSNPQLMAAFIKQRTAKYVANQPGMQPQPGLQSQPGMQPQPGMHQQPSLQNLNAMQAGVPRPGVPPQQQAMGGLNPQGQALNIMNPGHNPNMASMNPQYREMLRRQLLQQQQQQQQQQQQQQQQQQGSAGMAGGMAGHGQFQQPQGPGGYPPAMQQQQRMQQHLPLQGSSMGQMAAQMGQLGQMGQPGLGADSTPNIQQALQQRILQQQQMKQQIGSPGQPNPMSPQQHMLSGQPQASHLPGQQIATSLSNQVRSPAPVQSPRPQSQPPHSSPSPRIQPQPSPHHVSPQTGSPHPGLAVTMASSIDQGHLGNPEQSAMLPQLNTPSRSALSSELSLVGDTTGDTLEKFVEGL
Protocol: as §1, §2, §3, §4

CBP [3] = molecular target: T2, CBP; test: CBP protein level by immunoblotting in LNCaP cells; assay type: cell-based; parameters: LNCaP or 22RV1 cells that express CBP/P300 proteins were treated with GNE-781 or the bivalent compounds; endogenous in cells; host or cells: LNCaP (clone FGC); settings: single dose, FIG. 8
Protocol: (§5) Specific exemplary bivalent compounds were characterized in LNCaP or 22RV1 cells. LNCaP or 22RV1 cells that express CBP/P300 proteins were treated with GNE-781 or the bivalent compounds disclosed herein (P-001 to P-265) for indicated hours. Cells were collected, lysed and subject to immunoblotting using an antibody specific to P300 or CBP proteins. Tubulin or vinculin was included as the loading control. DMSO was used as the negative control.
(§6) LNCaP (clone FGC), 22RV1 and other cells were cultured at 37° C. with 5% CO 2 in RPMI 1640 Medium supplemented with 10% fetal bovine serum. Cells were authenticated using the short tandem repeat (STR) assays. Mycoplasma test results were negative.
as §3

P300 [4] = molecular target: T1, P300; test: P300 protein level by immunoblotting in LNCaP cells; assay type: cell-based; parameters: LNCaP or 22RV1 cells that express CBP/P300 proteins were treated with GNE-781 or the bivalent compounds; endogenous in cells; host or cells: LNCaP or 22RV1 (not given); settings: for degradation of P300 in combination with pomalidomide, MG-132, Bortezomib or MLN4924: single dose, FIG. 8; for P300 protein levels: various concentrations, compound vs analogue that lost cereblon binding, FIG. 7A
Protocol: as §5, §6, §3

P300 [5] = molecular target: T1, P300; test: P300 protein level by immunoblotting in 22RV1 cells; assay type: cell-based; parameters: LNCaP or 22RV1 cells that express CBP/P300 proteins were treated with GNE-781 or the bivalent compounds; endogenous in cells; host or cells: LNCaP or 22RV1 (not given); settings: various concentrations, compound vs analogue that lost cereblon binding, FIG. 7B
Protocol: as §5, §6
as §3, with “Proteins were resolved on SDS-PAGE and visualized by chemiluminescence. Images were taken by a ChemiDoc MP Imaging system (Bio-Rad).” left out

Row | Compound | P300 protein levels in xenograft tumors (P300 [1]) | CBP protein levels in xenograft tumors (CBP [2]) | degradation of CBP in combination with pomalidomide, MG-132, Bortezomib or MLN4924 (CBP [3]) | degradation of P300 in combination with pomalidomide, MG-132, Bortezomib or MLN4924 (P300 [4]) | P300 protein levels (P300 [4]) | P300 protein levels (P300 [5])
1 | CNC(=O)N1CCc2c(c(N3CCCc4cc(-c5cnn(C)c5)c(C(F)F)cc43)nn2C2CCN(C(=O)CCCCCCCNc3ccc4c(c3)C(=O)N(C3CCC(=O)NC3=O)C4=O)CC2)C1 (stereo not shown) [P-007, 3-(7-(difluoromethyl)-6-(1-methyl-1H-pyrazol-4-yl)-3,4-dihydroquinolin-1(2H)-yl)-1-(1-(8-((2-(2,6-dioxopiperidin-3-yl)-1,3-dioxoisoindolin-5-yl)amino)octanoyl)piperidin-4-yl)-N-methyl-1,4,6,7-tetrahydro-5H-pyrazolo[4,3-c]pyridine-5-carboxamide] | significantly reducing | significantly reducing | compromised; also recorded: could be neutralized | compromised; also recorded: could be neutralized | – | –
2 | CNC(=O)N1CCc2c(c(N3CCCc4cc(-c5cnn(C)c5)c(C(F)F)cc43)nn2C2CCN(C(=O)CCCCCNc3cccc4c3C(=O)N(C3CCC(=O)NC3=O)C4=O)CC2)C1 (stereo not shown) [P-034, 3-(7-(difluoromethyl)-6-(1-methyl-1H-pyrazol-4-yl)-3,4-dihydroquinolin-1(2H)-yl)-1-(1-(6-((2-(2,6-dioxopiperidin-3-yl)-1,3-dioxoisoindolin-4-yl)amino)hexanoyl)piperidin-4-yl)-N-methyl-1,4,6,7-tetrahydro-5H-pyrazolo[4,3-c]pyridine-5-carboxamide] | significantly reducing | significantly reducing | compromised; also recorded: could be neutralized | compromised; also recorded: could be neutralized | a chemical modification that disrupted cereblon binding abolished P300 degradation | a chemical modification that disrupted cereblon binding abolished P300 degradation
3 | CC(=O)N1CCc2c(c(N3CCCc4cc(-c5cnn(C)c5)c(C(F)F)cc43)nn2C2CCN(C(=O)CCCCCNc3cccc4c3C(=O)N(C3CCC(=O)NC3=O)C4=O)CC2)C1 (stereo not shown) [P-100, 4-((6-(4-(5-acetyl-3-(7-(difluoromethyl)-6-(1-methyl-1H-pyrazol-4-yl)-3,4-dihydroquinolin-1(2H)-yl)-4,5,6,7-tetrahydro-1H-pyrazolo[4,3-c]pyridin-1-yl)piperidin-1-yl)-6-oxohexyl)amino)-2-(2,6-dioxopiperidin-3-yl)isoindoline-1,3-dione] | significantly reducing | significantly reducing | compromised; also recorded: could be neutralized | compromised; also recorded: could be neutralized | reduced P300 protein levels in a concentration-dependent manner | reduced P300 protein levels in a concentration-dependent manner
